Assays:
Type in all cases: in vivo
[1] = tested on: ryegrass, Italian (Italian ryegrass, Lolium multiflorum); test: Test C preemergence, Italian ryegrass; conditions: 0 is no effect, 100 is complete control
Summary of the method: (§1)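 Plants grown in a sand and loam soil blend received the formulated test chemicals either as a preemergence soil-directed spray or postemergence at 2 to 10 cm height. After 10 or 12 greenhouse days, injury was assessed visually, with 100 meaning complete control.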

[2] = tested on: soybean (Glycine max); test: Test C preemergence, soybean; conditions: 0 is no effect, 100 is complete control
Summary of the method: as §1

[3] = tested on: corn (Zea mays); test: Test C postemergence, corn; conditions: visual injury, 0 to 100 scale (0 no effect, 100 complete control)
[4] = tested on: goosegrass (Eleusine indica); test: Test C postemergence, goosegrass; conditions: visual injury, 0 to 100 scale (0 no effect, 100 complete control)
Summary of the method: as §1

[5] = tested on: pigweed, palmer (palmer amaranth, Amaranthus palmeri); test: Test C postemergence, palmer amaranth; conditions: visual injury, 0 to 100 scale (0 no effect, 100 complete control)
Summary of the method: as §1

[6] = tested on: ragweed (common ragweed, Ambrosia artemisiifolia); test: Test C postemergence, ragweed; conditions: visual injury, 0 to 100 scale (0 no effect, 100 complete control)
Summary of the method: as §1

[7] = tested on: horseweed (Erigeron canadensis); test: Test C postemergence, horseweed; conditions: visual injury, 0 to 100 scale (0 no effect, 100 complete control)
Summary of the method: as §1

[8] = tested on: barnyardgrass (Echinochloa crusgalli); test: Test D flooded paddy test, barnyardgrass; set-up: key: 0 = no effect, 100 = complete control; conditions: 250 g ai/ha, Flood; applied to paddy water at 2-leaf stage; visual rating after 13 days; scale 0 (no effect) to 100 (complete control)
Summary of the method: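 2-leaf plants; flood 3 cm over soil; cpd into paddy water; depth maintained; greenhouse 13 d; visual rating vs controls, 0 = no effect, 100 = complete control; dash = no result.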

| SMILES | Plant response rating (0 to 100 scale), Ryegrass, Italian ([1]; 31 g ai/ha Preemergence) | Plant response rating (0 to 100 scale), Ryegrass, Italian ([1]; 125 g ai/ha Preemergence) | Plant response rating (0 to 100 scale), Soybean ([2]; 31 g ai/ha Preemergence) | Plant response rating (0 to 100 scale), Soybean ([2]; 125 g ai/ha Preemergence) | Corn plant response rating ([3]; 31 g ai/ha Postemergence) | Corn plant response rating ([3]; 125 g ai/ha Postemergence) | Goosegrass plant response rating ([4]; 31 g ai/ha Postemergence) | Goosegrass plant response rating ([4]; 125 g ai/ha Postemergence) | Pigweed, Palmer plant response rating ([5]; 31 g ai/ha Postemergence) | Pigweed, Palmer plant response rating ([5]; 125 g ai/ha Postemergence) | Ragweed plant response rating ([6]; 31 g ai/ha Postemergence) | Ragweed plant response rating ([6]; 125 g ai/ha Postemergence) | Horseweed plant response rating ([7]; 31 g ai/ha Postemergence) | Horseweed plant response rating ([7]; 125 g ai/ha Postemergence) | Plant response rating, Barnyardgrass [8] |
| --- | --- | --- | --- | --- | --- | --- | --- | --- | --- | --- | --- | --- | --- | --- | --- |
| Cc1cc(C)c(N(COC(=O)C(C)(C)C)S(=O)(=O)C(F)(F)F)cc1N1CCC(OCC2CCC2)C1=O (stereo not drawn) [Compound 56] | 30 | 80 | 0 | 30 | 0 | 30 | 0 | 60 | 0 | 40 | 20 | 60 | 20 | 80 | 35 |
| Cc1cc(C)c(N2CCC(OCC3CCCC3)C2=O)cc1NS(=O)(=O)C(F)(F)F (stereo not drawn) [Compound 57] | 70 | 90 | 70 | 90 | 0 | 40 | 70 | 90 | 40 | 70 | 40 | 60 | 0 | 80 | 15 |
| C#CC(C)OC1CCN(c2cc(NS(=O)(=O)C(F)(F)F)c(C)cc2C)C1=O (stereo not drawn) [Compound 58] | 90 | 100 | 100 | 100 | 60 | 90 | 100 | 100 | 50 | 80 | 70 | 90 | 90 | 90 | 90 |
| Cc1cc(C)c(N2CCC(OCc3ccccc3)C2=O)cc1NS(=O)(=O)C(F)(F)F (stereo not drawn) [Compound 61] | 60 | 90 | 40 | 90 | 10 | 60 | 40 | 90 | 50 | 80 | 50 | 80 | 60 | 60 | 95 |
| Cc1c(NS(=O)(=O)C(F)(F)F)cc(N2CCC(OCC3CC3)C2=O)c(C)c1F (stereo not drawn) [Compound 63] | 50 | 100 | 60 | 100 | 0 | 50 | 0 | 90 | 70 | 90 | 40 | 80 | 90 | 90 | 45 |
| Cc1c(NS(=O)(=O)C(F)(F)F)cc(N2CCC(OCC3CCC3)C2=O)c(C)c1F (stereo not drawn) [Compound 64] | 50 | 90 | 40 | 90 | 0 | 10 | 30 | 70 | 60 | 70 | 30 | 70 | 10 | 60 | 25 |
